Square brackets hold non-standard residues; d marks the D form. Primed or numbered codes have the meaning given here. Lys(N3) = [N-]=[N+]=NCCCC[C@H](N)C(=O)O; prA″ = not defined here
Columns and labels:
integrin = settings: cyclic conformation approximating presentation on fibronectin; cited from earlier work
[1] = target: T1, human matrix metalloproteinase 8 (MMP8) (Homo sapiens, UniProt P22894); assay: Cleavage of peptide-linked DX tile dimer by MMP8, native PAGE; assay type: biochemical; settings: 4 ng protein, incubation for 48 h at 37° C. in PBS
T1 construct: purchased PerkinElmer
Source text: As previously mentioned, one of our goals for these DPD triblock molecules is to use them as enzymatically-cleavable latches for a DNA nanostructure, e.g. to close the lid of a DNA origami box or “nano-bot”. To probe this effect, we used our DPD triblock to link together two model DNA nanostructures: double crossover (“DX” tiles), defined nanoscale objects 14 nm in length and 4 nm wide. DX tiles are composed of five unique strands—two edge strands, one central strand, and two crossover strands—and we designed two tiles that would have DNA1 and DNA2 as respective crossover strands (see FIG. 3A and Examples for tile design and strand composition). We surmised that upon annealing (95-4° C., over 2 h) the constituent strands for these tiles with the DNA1-MMPpep-DNA2 conjugate both tiles would form simultaneously, with the full hybridization of DNA1 and DNA2 into the corresponding tiles breaking the DPD hairpin. Addition of MMP8 to the DX tile dimer should cleave MMPpep, and restore the two separate DNA nanostructures.
We probed this system by native (non-denaturing) PAGE, FIG. 3A. Lanes 1 and 2 show the annealed DX tile with DNA2 incorporated, and the second DX tile with DNA1-MMPpep-(prA) respectively. […]
Polyacrylamide gel electrophoresis (PAGE). […] DX tiles were analyzed using 6% native polyacrylamide gels, with 1×TAE containing 12.5 mM Mg^2+ as a running buffer, at 200 V for 160 min.

T1 sequence (P22894 101-467): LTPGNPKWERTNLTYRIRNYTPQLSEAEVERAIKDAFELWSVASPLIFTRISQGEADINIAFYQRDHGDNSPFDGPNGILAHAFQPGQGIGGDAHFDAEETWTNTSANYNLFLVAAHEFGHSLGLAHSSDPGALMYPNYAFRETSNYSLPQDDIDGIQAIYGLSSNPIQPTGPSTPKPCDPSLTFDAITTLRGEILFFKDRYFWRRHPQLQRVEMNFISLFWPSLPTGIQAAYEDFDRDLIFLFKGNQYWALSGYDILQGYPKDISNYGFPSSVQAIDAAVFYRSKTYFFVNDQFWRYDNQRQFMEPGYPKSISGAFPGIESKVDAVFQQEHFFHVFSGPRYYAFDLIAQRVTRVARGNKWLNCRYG

Row | Substance | increase in binding efficiency on constraining in a cyclic conformation (integrin) | cleavage of DX tile dimer to individual tiles after addition of MMP8 [1]
1 | RGDS | several orders of magnitude | 
2 | (prA)GQGIPQGWGG(azK) ({prA″}-GQGIPQGWGG[Lys(N3)]-NH2; not fully specified; printed as (prA)GQGIPQGWGG(azK); reading uncertain) [MMPpep-scram, tested as linker of a tile dimer] |  | did not show any cleavage to individual tiles
